Experimental data: patent US6992215B2, “Thiol-based NAALADase inhibitors” (Guildford Pharmaceuticals Inc., priority 2001, dated 2006)
pEC50: −log10 of the molar value.

How the values were obtained:
cortical cell cultures = experiment: In Vitro Assay on Ischemia (glutamate toxicity after potassium cyanide / 2-deoxyglucose insult); type: cell-based; conditions: concentration required to cause a 50% reduction in glutamate toxicity following an ischemic insult
Method: To examine the in vitro effect of the inventive compounds on ischemia, cortical cell cultures were treated with various compounds of this invention during an ischemic insult utilizing potassium cyanide and 2-deoxyglucose, and for one hour thereafter. For a description of the experimental method used, see Vornov et al., J. Neurochem., Vol. 65, No. 4, pp. […] (1995).

[1] = test system: chronic constrictive injury-induced rats; experiment: Neuropathic pain in CCI model (sciatic nerve ligation, thermal hyperalgesia); type: in vivo; conditions: 10, 1 or 0.1 mg/kg for 15 days after sciatic nerve ligation, FIGS. 13-15
Method: Sciatic nerve ligation, consisting of 4 ligatures tied loosely around the sciatic nerve at 1 mm intervals proximal to the nerve trifurcation, was performed on rats. […] The rats were habituated to a Hargreaves apparatus. An infrared heat source was directed onto the dorsal surface of each rat's hindpaws and the time taken for the rat to withdraw its paws was noted. The difference in scores between the latency of the response for the paw on the operated side versus the paw on the unoperated control side was determined.
The rats were treated with either Compound 49 (10, 1 or 0.1 mg/kg) or a vehicle for 15 days after sciatic nerve ligation. Thermal pain responses were measured at days 0, 1, 5, 8, 11 and 15. The differences in scores for the rats treated with a vehicle and the rats treated with Compound 49 are graphically presented in FIGS. 13-15.
The rats were treated with either Compound 5 (50, 30, 10, 3, 1 or 0.3 mg/kg) or a vehicle for 12 (or 15) days after sciatic nerve ligation. Thermal pain responses were measured at days 0, 1, 5, 8 and 12 (and 15). The differences in scores for the rats treated with a vehicle and the rats treated with Compound 5 are graphically presented in FIGS. 17-22.
The rats received either Compound C (50 mg/kg i.p. daily) or a vehicle starting 10 days post surgery. […] Normal (unoperated) rats had approximately equal latencies for both paws. This effect was significant starting at 11 days of drug treatment and persisted through to the end of the study (for 21 days of daily dosing).

Structure (SMILES)	pEC50 (cortical cell cultures)	difference in scores between the operated and unoperated paws [1]
O=C(O)c1ccc(CC(CCCS)C(=O)O)cc1 (stereo not drawn) [Compound 6, 4-carboxy-alpha-(3-mercaptopropyl)-benzenepropanoic acid]	7.75	–
CS(=O)(=O)c1ccc(CC(CCCS)C(=O)O)cc1 (stereo not drawn) [Compound 7, alpha-(3-mercaptopropyl)-4-(methylsulfonyl)-benzenepropanoic acid]	5.97	–
N#Cc1ccccc1CC(CCCS)C(=O)O (stereo not drawn) [Compound 8, 2-cyano-alpha-(3-mercaptopropyl)-benzenepropanoic acid]	6.88	–
O=C(O)c1cc(CC(CCCS)C(=O)O)cc(C(=O)O)c1 (stereo not drawn) [Compound 9, 5-(2-carboxy-5-mercaptopentyl)-1,3-benzenedicarboxylic acid]	6.98	–
O=C(O)c1ccc(Cl)c(CC(CCCS)C(=O)O)c1 (stereo not drawn) [Compound 10, 5-carboxy-2-chloro-alpha-(3-mercaptopropyl)-benzenepropanoic acid]	8.11	–
O=C(O)c1cc(CC(CCCS)C(=O)O)ccc1F (stereo not drawn) [Compound 11, 3-carboxy-4-fluoro-alpha-(3-mercaptopropyl)-benzenepropanoic acid]	7.81	–
N#Cc1ccccc1-c1ccc(CC(CCCS)C(=O)O)cc1 (stereo not drawn) [Compound 12, 4-(2-cyanophenyl)-alpha-(3-mercaptopropyl)-benzenepropanoic acid]	6.73	–
NC(=O)c1ccccc1CC(CCCS)C(=O)O (stereo not drawn) [Compound 13, 2-(aminocarbonyl)-alpha-(3-mercaptopropyl)-benzenepropanoic acid]	5.00	–
O=C(O)c1cccc(OC(CCCS)C(=O)O)c1 (stereo not drawn) [Compound 14, 3-(1-carboxy-4-mercaptobutoxy)-benzoic acid]	7.80	–
O=C(O)C(CCCS)Oc1ccccc1 (stereo not drawn) [Compound 15, 5-mercapto-2-phenoxy-pentanoic acid]	6.00	–
COc1cc(OC)cc(OC(CCCS)C(=O)O)c1 (stereo not drawn) [Compound 16, 2-(3,5-dimethoxyphenoxy)-5-mercapto-pentanoic acid]	6.57	–
O=C(O)Cc1cccc(OC(CCCS)C(=O)O)c1 (stereo not drawn) [Compound 20, 3-(1-carboxy-4-mercaptobutoxy)-benzeneacetic acid]	7.41	–
O=C(O)Cc1ccc(OC(CCCS)C(=O)O)cc1 (stereo not drawn) [Compound 21, 4-(1-carboxy-4-mercaptobutoxy)-benzeneacetic acid]	7.94	–
CC(=O)c1cccc(OC(CCCS)C(=O)O)c1 (stereo not drawn) [Compound 23, 2-(3-acetylphenoxy)-5-mercapto-pentanoic acid]	7.68	–
CC(=O)Nc1ccc(CC(CCCS)C(=O)O)cc1 (stereo not drawn) [Compound 26, 4-(acetylamino)-alpha-(3-mercaptopropyl)-benzenepropanoic acid]	5.74	–
COc1ccc(C(=O)O)cc1OC(CCCS)C(=O)O (stereo not drawn) [Compound 27, 3-(1-carboxy-4-mercaptobutoxy)-4-methoxy-benzoic acid]	6.81	–
O=C(O)Cc1ccc(CC(CCCS)C(=O)O)cc1 (stereo not drawn) [Compound 28, 4-(carboxymethyl)-alpha-(3-mercaptopropyl)-benzenepropanoic acid]	7.32	–
O=C(O)c1ccc(OC(CCCS)C(=O)O)cc1 (stereo not drawn) [Compound 30, 4-(1-carboxy-4-mercaptobutoxy)-benzoic acid]	6.40	–
O=C(O)c1cccc(CC(CCCS)C(=O)O)c1Cl (stereo not drawn) [Compound 31, 3-carboxy-2-chloro-alpha-(3-mercaptopropyl)-benzenepropanoic acid]	7.51	–
O=C(O)c1cc(CC(CCCS)C(=O)O)ccc1Cl (stereo not drawn) [Compound 32, 3-carboxy-4-chloro-alpha-(3-mercaptopropyl)-benzenepropanoic acid]	8.15	–

Structure (SMILES)	pEC50 (cortical cell cultures)	difference in scores between the operated and unoperated paws [1]
O=C(O)c1ccc(Cl)c(OC(CCCS)C(=O)O)c1 (stereo not drawn) [Compound 33, 3-(1-carboxy-4-mercaptobutoxy)-4-chloro-benzoic acid]	6.96	–
O=C(O)c1ccc(F)c(OC(CCCS)C(=O)O)c1 (stereo not drawn) [Compound 34, 3-(1-carboxy-4-mercaptobutoxy)-4-fluoro-benzoic acid]	6.46	–
O=C(O)c1ccc(F)c(CC(CCCS)C(=O)O)c1 (stereo not drawn) [Compound 35, 5-carboxy-2-fluoro-alpha-(3-mercaptopropyl)-benzenepropanoic acid]	7.64	–
COc1ccc(C(=O)O)cc1CC(CCCS)C(=O)O (stereo not drawn) [Compound 36, 5-carboxy-alpha-(3-mercaptopropyl)-2-methoxy-benzenepropanoic acid]	7.13	–
O=C(O)c1ccc(CC(CCCS)C(=O)O)c2ccccc12 (stereo not drawn) [Compound 37, 4-carboxy-alpha-(3-mercaptopropyl)-1-naphthalenepropanoic acid]	6.67	–
O=C(O)c1ccccc1CC(CCCS)C(=O)O (stereo not drawn) [Compound 38, 2-carboxy-alpha-(3-mercaptopropyl)-benzenepropanoic acid]	6.12	–
O=C(O)c1c(F)c(F)c(CC(CCCS)C(=O)O)c(F)c1F (stereo not drawn) [Compound 39, 4-carboxy-2,3,5,6-tetrafluoro-alpha-(3-mercaptopropyl)-benzenepropanoic acid]	6.54	–
O=C(O)C(CCCS)Sc1ccccc1 (stereo not drawn) [Compound 40, 5-mercapto-2-(phenylthio)-pentanoic acid]	6.34	–
O=C(O)C(CCCS)Cc1ccccc1Cl (stereo not drawn) [Compound 43, 2-chloro-alpha-(3-mercaptopropyl)-benzenepropanoic acid]	6.34	–
O=C(O)c1cc(Br)cc(CC(CCCS)C(=O)O)c1 (stereo not drawn) [Compound 45, 3-bromo-5-carboxy-alpha-(3-mercaptopropyl)-benzenepropanoic acid]	8.70	–
O=C(O)CNC(=O)c1cccc(CC(CCCS)C(=O)O)c1 (stereo not drawn) [Compound 46, 3-[[(carboxymethyl)amino]carbonyl]-alpha-(3-mercaptopropyl)-benzenepropanoic acid]	6.26	–
O=C(O)c1ccc(CC(CCCS)C(=O)O)cc1Br (stereo not drawn) [Compound 47, 3-bromo-4-carboxy-alpha-(3-mercaptopropyl)-benzenepropanoic acid]	6.92	–
O=C(O)c1cc(CC(CCCS)C(=O)O)cc([N+](=O)[O-])c1 (stereo not drawn) [Compound 48, 3-carboxy-alpha-(3-mercaptopropyl)-5-nitro-benzenepropanoic acid]	8.62	–
CC(C)(C)c1cc(CC(CCCS)C(=O)O)cc(C(=O)O)c1 (stereo not drawn) [Compound 49, 3-carboxy-5-(1,1-dimethylethyl)-alpha-(3-mercaptopropyl)-benzenepropanoic acid]	–	normalized the difference in scores
O=C(O)c1ccc([N+](=O)[O-])c(CC(CCCS)C(=O)O)c1 (stereo not drawn) [Compound 50, 5-carboxy-alpha-(3-mercaptopropyl)-2-nitro-benzenepropanoic acid]	7.59	–
O=C(O)c1cc(CC(CCCS)C(=O)O)cc(-c2ccccc2)c1 (stereo not drawn) [Compound 55, 5-(2-carboxy-5-mercaptopentyl)-[1,1′-biphenyl]-3-carboxylic acid]	9.00	–
O=C(O)c1ccc(-c2ccccc2)c(CC(CCCS)C(=O)O)c1 (stereo not drawn) [Compound 56]	7.96	–
O=C(O)c1cccc(CC(CCCS)C(=O)O)c1-c1ccccc1 (stereo not drawn) [Compound 57, 6-(2-carboxy-5-mercaptopentyl)-[1,1′-biphenyl]-2-carboxylic acid]	7.68	–
O=C(O)c1cc(CC(CCCS)C(=O)O)ccc1-c1ccccc1 (stereo not drawn) [Compound 58, 4-(2-carboxy-5-mercaptopentyl)-[1,1′-biphenyl]-2-carboxylic acid]	7.80	–
